Data taken from PMC9921329, “Semisynthetic Sesquiterpene Lactones Generated by the Sensibility of Glaucolide B to Lewis and Brønsted–Lowry Acids and Bases: Cytotoxicity and Anti-Inflammatory Activities” (Molecules, 2023).

Legend:
[1] = system: SF295 (human glioblastoma cell line); test: MTT cell viability, human glioblastoma cells; type: cell-based; settings: 24 h incubation, mean ± SD (n = 3), test concentration not given
Method: (§1) To evaluate the potential antitumoral activity of the compounds, the MTT [3-(4,5-dimethyl-2-thiazolyl)-2,5-diphenyl-2H-tetrazolium bromide] method was used to determine the cell viability of SK-MEL-28 (human melanoma cell line), NCI-H460 (human lung carcinoma cell line), SF295 (human glioblastoma cell line), and HUVEC (human umbilical vein endothelial cells) line. Cell viability analysis of murine macrophage J774A.1 was conducted using a resazurin-based cytotoxicity assay (Alamar blue®). All cell lines were acquired from the BCRJ (Rio de Janeiro Cell Bank, Federal University of Rio de Janeiro, Brazil). The cell lines were cultivated in RPMI-1640 or DMEM medium, supplemented with 1.5 g/L of sodium bicarbonate, 10 mM of HEPES, pH 7.4, 100 U/mL of penicillin G, 100 μg/mL of streptomycin, and 10% fetal calf serum at 37 °C in a humidified atmosphere consisting of 95% air and 5% CO2 cultures, and greater than 95% of viable cells in trypan blue exclusion tests were used for the experiments. Therefore, cells were seeded (1 × 10^4/well) in 96-well plates and incubated with increasing concentrations of the compounds for 24 h. After incubation, the former culture medium was replaced with a fresh culture medium with 5 mg/mL of MTT and with 0.1 mg/mL of resazurin for 2 h at 37 °C. MTT formazan crystals were dissolved in DMSO, and the absorbance of each well was measured at 540 nm, using a micro-well system reader. For the control group of each cell line, cells were incubated without the compounds and considered to have 100% cell viability. MTT formazan crystals were dissolved in DMSO, and absorbance was measured at 540 nm using a microplate reader (ELX800, Biotek, Winooski, VT, USA). The half-maximal cytotoxic concentration (CC50) values were calculated from a Hill concentration–response curve. Results were expressed as the mean ± SD of three experiments. The selectivity index (SI) was calculated via the ratio between the CC50 of non-tumoral cells and the tumoral cell lines. […] For the resazurin assay, fluorescence was measured at 1 h intervals using a plate multi-reader (Infinite Multireader m200 Tecan) at 530–590 nm. Nonlinear regression of each fraction versus percentage cell viability was performed to obtain a 10% toxicity concentration (a concentration causing 90% cell viability) using GraphPad Prism 8.0 software (GraphPad Software, San Diego, CA, USA).

[2] = system: LPS-stimulated M1 macrophages J774A.1 (IL-6); test: Interleukin-6 release from LPS-stimulated macrophages (ELISA); type: cell-based, murine
Method: (§2) The in vitro anti-inflammatory activity was performed in murine macrophage J774A.1 and analyzed after modifications to the protocol previously described by […] and coworkers. The evaluation consisted of measuring the production of nitrite through an indicator of NO synthesis in supernatants from LPS-activated macrophages. A number of 1 × 10^5 cells/well were seeded in 96-well plates for 24 h, after which time the culture medium was changed, and the CC10 concentration (Figure S70, found in the Supplementary Materials) of each compound was added to the medium containing DMEM supplemented with 10% FBS. After 15 min, macrophages were stimulated with 10 μg/mL of LPS and incubated for 24 h to obtain a proinflammatory M1-phenotype. Subsequently, supernatants were collected and total nitrite nitrate (NOx) was measured by adding 100 μL of Griess' reagent (1% sulfanilamide and 0.1% N-(1-naphthyl) ethylenediamine in 0.5% phosphoric acid). Absorbance was determined with a microplate reader (ELX800, BioTek, Winooski, VT, USA) at 540 nm. In addition, the proinflammatory cytokine IL-6 was determined using an enzyme-linked immunosorbent assay (ELISA) (BD Bioscience, San Jose, CA, USA) according to the manufacturer's instructions.

[3] = system: SK-MEL-28 (human melanoma cell line); test: MTT cell viability / cytotoxicity, human melanoma cells; type: cell-based; settings: for CC50 / Viability (%) SK-MEL-28: MTT; for CC50: 24 h, half-maximal cytotoxic concentration; for Viability (%) SK-MEL-28: 24 h incubation, mean ± SD (n = 3), test concentration not given
Method: as §1

[4] = system: LPS-stimulated M1 macrophages J774A.1 (NOx); test: Total nitrite nitrate (NOx) release from LPS-stimulated macrophages (Griess); type: cell-based, murine
Method: as §2

[5] = system: murine macrophage J774A.1; test: Resazurin-based cytotoxicity assay (Alamar blue) in macrophages; type: cell-based; settings: J774A.1, Figure S70
Method: To evaluate the potential antitumoral activity of the compounds, the MTT [3-(4,5-dimethyl-2-thiazolyl)-2,5-diphenyl-2H-tetrazolium bromide] method was used to determine the cell viability of SK-MEL-28 (human melanoma cell line), NCI-H460 (human lung carcinoma cell line), SF295 (human glioblastoma cell line), and HUVEC (human umbilical vein endothelial cells) line. Cell viability analysis of murine macrophage J774A.1 was conducted using a resazurin-based cytotoxicity assay (Alamar blue®). All cell lines were acquired from the BCRJ (Rio de Janeiro Cell Bank, Federal University of Rio de Janeiro, Brazil). […] MTT formazan crystals were dissolved in DMSO, and the absorbance of each well was measured at 540 nm, using a micro-well system reader. […] MTT formazan crystals were dissolved in DMSO, and absorbance was measured at 540 nm using a microplate reader (ELX800, Biotek, Winooski, VT, USA). The half-maximal cytotoxic concentration (CC50) values were calculated from a Hill concentration–response curve. Results were expressed as the mean ± SD of three experiments. The selectivity index (SI) was calculated via the ratio between the CC50 of non-tumoral cells and the tumoral cell lines. […] For the resazurin assay, fluorescence was measured at 1 h intervals using a plate multi-reader (Infinite Multireader m200 Tecan) at 530–590 nm. […]

[6] = MTT cytotoxicity, non-tumoral endothelial cells; type: cell-based, human; settings: human, HUVEC cells (non-tumoral), pH 7.4
Method: as §1

[7] = system: NCI-H460 (human lung carcinoma cell line); test: MTT cell viability, human lung carcinoma cells; type: cell-based; settings: 24 h incubation, mean ± SD (n = 3), test concentration not given
Method: as §1

[8] = system: HUVEC (human umbilical vein endothelial cells); test: MTT cytotoxicity, non-tumoral endothelial cells; type: cell-based; settings: 24 h
Method: as §1

[9] = compound at CC10, pre-treatment 15 min, LPS 10 μg/mL, 24 h

Molecule	Viability (%) SF295 [1]	Anti-inflammatory activity, IL-6 release (in words) ([2]; compound at CC10, LPS 10 μg/mL)	Reduction of IL-6 release vs control M1 cells (LPS+ group) [2, 9]	CC50 ([3]; Homo sapiens, SK-MEL-28)	Viability (%) SK-MEL-28 [3]	SI (selectivity index) SK-MEL-28 ([3]; ratio of CC50 of non-tumoral HUVEC cells to CC50 of SK-MEL-28)	Anti-inflammatory activity, NOx release (in words) ([4]; compound at CC10, LPS 10 μg/mL)	Reduction of NOx release vs control M1 cells (LPS+ group) [4, 9]	Cytotoxicity against macrophages (in words) [5]	CC50 at 24 h [6]	Viability (%) NCI-H460 [7]	CC50 [3]	CC50 [8]
CC(=O)OCC1=C2C(OC(C)=O)CC(C)(OC(C)=O)C3(O)CCC(C)(O3)C(OC(C)=O)C2OC1=O (stereo not shown) [Compound 7a, 5-acetoxy-hirsutinolide]	86.9 ± 4.3%	strongly reduced	~77%	5 µM	17.1 ± 3.3%	2.5	strongly reduced	~77%	less cytotoxicity against macrophages	12.7 µM	74.6 ± 1.3%		
glaucolide A [Compound 11, reference compound]	91.8 ± 3.3%				56.3 ± 1.4%						95.1 ± 4.6%	14.6 µM	20.4 µM
